# In patent publication US9511058B2, “Methods for using carboxamide, sulfonamide and amine compounds” (Rigel Pharmaceuticals, Inc., priority 2010, dated 2016):
# Biological target: AMPK
# Test: AMPK activation, enzyme-linked immunosorbent assay
# Assay type: biochemical
# Conditions: compounds of Table 5 (Table 10)
row,SMILES,EC50 [nM]
1,"O=C(NC1CCN(Cc2ccccc2)CC1)c1ccc(OC2CCN(Cc3ccc(Cl)cc3)CC2)c(F)c1 [5-64, N-(1-benzylpiperidin-4-yl)-4-(1-(4-chlorobenzyl)piperidin-4-yloxy)-3-fluorobenzamide]",< 1000
2,"O=C(NC1CCN(Cc2ccccc2)CC1)c1ccc(OC2CCN(Cc3ccc(Cl)cc3)CC2)c(Cl)c1 [5-65, N-(1-benzylpiperidin-4-yl)-3-chloro-4-(1-(4-chlorobenzyl)piperidin-4-yloxy)benzamide]",< 1000
3,"O=C(NC1CCN(Cc2ccc(F)cc2)CC1)c1ccc(OC2CCN(Cc3ccc(Cl)cc3)CC2)c(Cl)c1 [5-66, 3-chloro-4-(1-(4-chlorobenzyl)piperidin-4-yloxy)-N-(1-(4-fluorobenzyl)piperidin-4-yl)benzamide]",< 1000
4,"N#Cc1ccc(CN2CCC(Oc3ccc(C(=O)NC4CCN(Cc5ccccc5)CC4)cc3Cl)CC2)cc1 [5-67, N-(1-benzylpiperidin-4-yl)-3-chloro-4-(1-(4-cyanobenzyl)piperidin-4-yloxy)benzamide]",< 1000
5,"Cc1ccc(CN2CCC(Oc3ccc(C(=O)NC4CCN(Cc5ccc(F)cc5)CC4)cc3Cl)CC2)cc1 [5-68, 3-chloro-N-(1-(4-fluorobenzyl)piperidin-4-yl)-4-(1-(4-methylbenzyl)piperidin-4-yloxy)benzamide]",< 1000
6,"O=C(NC1CCN(Cc2ccccc2)CC1)c1ccc(OC2CCN(Cc3ccc(F)c(F)c3)CC2)c(F)c1 [5-69, N-(1-benzylpiperidin-4-yl)-4-(1-(3,4-difluorobenzyl)piperidin-4-yloxy)-3-fluorobenzamide]",< 1000
7,"N#Cc1ccc(CN2CCC(Oc3ccc(C(=O)NC4CCN(Cc5ccc(Cl)cc5)CC4)cc3F)CC2)cc1 [5-70, N-(1-(4-chlorobenzyl)piperidin-4-yl)-4-(1-(4-cyanobenzyl)piperidin-4-yloxy)-3-fluorobenzamide]",< 1000
8,"O=C(NC1CCN(Cc2ccc(Cl)cc2)CC1)c1ccc(OC2CCN(Cc3ccc(F)c(F)c3)CC2)c(F)c1 [5-71, N-(1-(4-chlorobenzyl)piperidin-4-yl)-4-(1-(3,4-difluorobenzyl)piperidin-4-yloxy)-3-fluorobenzamide]",< 1000
9,"O=C(NC1CCN(Cc2ccc(Cl)cc2)CC1)c1ccc(OC2CCN(Cc3ccc(Cl)cc3)CC2)c(F)c1 [5-72, N-(1-(4-chlorobenzyl)piperidin-4-yl)-4-(1-(4-chlorobenzyl)piperidin-4-yloxy)-3-fluorobenzamide]",< 1000
10,"Cc1ccc(CN2CCC(Oc3ccc(C(=O)NC4CCN(Cc5ccc(Cl)cc5)CC4)cc3F)CC2)cc1 [5-73, N-(1-(4-chlorobenzyl)piperidin-4-yl)-3-fluoro-4-(1-(4-methylbenzyl)piperidin-4-yloxy)benzamide]",< 1000
11,"O=C(NC1CCN(Cc2ccccc2)CC1)c1ccc(OC2CCN(Cc3ccc(F)c(F)c3)CC2)c(Cl)c1 [5-74, N-(1-benzylpiperidin-4-yl)-3-chloro-4-(1-(3,4-difluorobenzyl)piperidin-4-yloxy)benzamide]",< 1000
12,"O=C(NC1CCN(Cc2ccccc2)CC1)c1cc(Cl)c(OC2CCN(Cc3ccc(Cl)cc3)CC2)c(Cl)c1 [5-75, N-(1-benzylpiperidin-4-yl)-3,5-dichloro-4-(1-(4-chlorobenzyl)piperidin-4-yloxy)benzamide]",< 1000
13,"O=C(NC1CCN(Cc2ccccc2)CC1)c1cc(Cl)c(OC2CCN(Cc3ccc(F)c(F)c3)CC2)c(Cl)c1 [5-76, N-(1-benzylpiperidin-4-yl)-3,5-dichloro-4-(1-(3,4-difluorobenzyl)piperidin-4-yloxy)benzamide]",< 1000
14,"N#Cc1ccc(CN2CCC(Oc3c(Cl)cc(C(=O)NC4CCN(Cc5ccccc5)CC4)cc3Cl)CC2)cc1 [5-77, N-(1-benzylpiperidin-4-yl)-3,5-dichloro-4-(1-(4-cyanobenzyl)piperidin-4-yloxy)benzamide]",< 1000
15,"CC(C)(C)OC(=O)N1CCC(NC(=O)c2ccc(OC3CCN(Cc4ccc(C#N)cc4)CC3)cc2)CC1 [5-78, tert-butyl 4-(4-(1-(4-cyanobenzyl)piperidin-4-yloxy)benzamido)piperidine-1-carboxylate]",< 1000
16,"N#Cc1ccc(CN2CCC(Oc3ccc(C(=O)NC4CCNCC4)cc3)CC2)cc1 [5-79, 4-(1-(4-cyanobenzyl)piperidin-4-yloxy)-N-(piperidin-4-yl)benzamide]",> 100000
17,"O=C(NC1CCN(Cc2ccc(Cl)cc2)CC1)c1ccc(OC2CCN(Cc3ccc(Cl)c(Cl)c3)CC2)c(F)c1 [5-80, N-(1-(4-chlorobenzyl)piperidin-4-yl)-4-(1-(3,4-dichlorobenzyl)piperidin-4-yloxy)-3-fluorobenzamide]",< 1000
18,"N#Cc1ccc(N2CCC(Oc3ccc(C(=O)NC4CCN(Cc5ccc(Cl)cc5)CC4)cc3F)CC2)cc1 [5-81, N-(1-(4-chlorobenzyl)piperidin-4-yl)-4-(1-(4-cyanophenyl)piperidin-4-yloxy)-3-fluorobenzamide]",< 1000
19,"O=C(NC1CCN(Cc2ccccc2)CC1)c1ccc(OC2CCN(Cc3ccc(Cl)c(Cl)c3)CC2)c(F)c1 [5-82, N-(1-benzylpiperidin-4-yl)-4-(1-(3,4-dichlorobenzyl)piperidin-4-yloxy)-3-fluorobenzamide]",< 1000
20,"N#Cc1ccc(CN2CCC(Oc3ccc(C(=O)NC4CCN(Cc5ccncc5)CC4)cc3)CC2)cc1 [5-83, 4-(1-(4-cyanobenzyl)piperidin-4-yloxy)-N-(1-(pyridin-4-ylmethyl)piperidin-4-yl)benzamide]",< 1000
21,"O=C(NC1CCN(Cc2ccccc2)CC1)c1ccc(OC2CCN(Cc3ccc(Cl)c(Cl)c3)CC2)c(Cl)c1 [5-84, N-(1-benzylpiperidin-4-yl)-3-chloro-4-(1-(3,4-dichlorobenzyl)piperidin-4-yloxy)benzamide]",< 1000
22,"N#Cc1ccc(CN2CCC(Oc3ccc(C(=O)NC4CCN(Cc5ccccn5)CC4)cc3)CC2)cc1 [5-85, 4-(1-(4-cyanobenzyl)piperidin-4-yloxy)-N-(1-(pyridin-2-ylmethyl)piperidin-4-yl)benzamide]",< 1000

# Continued, values first:
row,EC50 [nM],SMILES
1,< 1000,"O=C(NC1CCN(Cc2ccccc2)CC1)c1cccc(OC2CCN(c3ccccn3)CC2)c1 [5-86, N-(1-benzylpiperidin-4-yl)-3-(1-(pyridin-2-yl)piperidin-4-yloxy)benzamide]"
2,< 1000,"O=C(NC1CCN(Cc2ccncc2)CC1)c1cccc(OC2CCN(c3ccc(C(F)(F)F)cc3)CC2)c1 [5-87, N-(1-(pyridin-4-ylmethyl)piperidin-4-yl)-3-(1-(4-(trifluoromethyl)phenyl)piperidin-4-yloxy)benzamide]"
3,1000 to 10000,"N#Cc1ccc(N2CCC(Oc3cccc(C(=O)NC4CCN(Cc5ccncc5)CC4)c3)CC2)cc1 [5-88, N-(1-(pyridin-4-ylmethyl)piperidin-4-yl)-3-(1-(4-cyanophenyl)piperidin-4-yloxy)benzamide]"
4,1000 to 10000,"N#Cc1cccc(CN2CCC(Oc3cccc(C(=O)NC4CCN(Cc5ccccc5)CC4)c3)CC2)c1 [5-89, N-(1-benzylpiperidin-4-yl)-3-(1-(3-cyanobenzyl)piperidin-4-yloxy)benzamide]"
5,1000 to 10000,"CC(C)(C)OC(=O)N1CCC(Oc2ccc(C(=O)NC3CCN(Cc4ccccc4)CC3)cc2Cl)CC1 [5-90, tert-butyl 4-(4-(1-benzylpiperidin-4-ylcarbamoyl)-2-chlorophenoxy)piperidine-1-carboxylate]"
6,< 1000,"CC(C)(C)C(=O)N1CCC(Oc2ccc(C(=O)NC3CCN(Cc4ccccc4)CC3)cc2Cl)CC1 [5-91, N-(1-benzylpiperidin-4-yl)-3-chloro-4-(1-pivaloylpiperidin-4-yloxy)benzamide]"
7,1000 to 10000,"CC(C)(C)OC(=O)N1CCC(Oc2ccc(C(=O)NC3CCN(Cc4ccccc4)CC3)cc2F)CC1 [5-92, tert-butyl 4-(4-(1-benzylpiperidin-4-ylcarbamoyl)-2-fluorophenoxy)piperidine-1-carboxylate]"
8,> 100000,"O=C(NC1CCN(Cc2ccccc2)CC1)c1ccc(OC2CCNCC2)c(Cl)c1 [5-93, N-(1-benzylpiperidin-4-yl)-3-chloro-4-(piperidin-4-yloxy)benzamide]"
9,< 1000,"COc1cc(C(=O)NCCCNC(=O)OC(C)(C)C)ccc1OC1CCN(Cc2ccc(C(F)(F)F)cc2)CC1 [5-94, tert-butyl 3-(3-methoxy-4-(1-(4-(trifluoromethyl)benzyl)piperidin-4-yloxy)benzamido)propylcarbamate]"
10,< 1000,"CC(C)(C)OC(=O)NCCCNC(=O)c1ccc(OC2CCN(Cc3ccc(C(F)(F)F)cc3)CC2)cc1 [5-95, tert-butyl 3-(4-(1-(4-(trifluoromethyl)benzyl)piperidin-4-yloxy)benzamido)propylcarbamate]"
11,1000 to 10000,"COc1ccc(CN2CCC(Oc3ccc(C(=O)N4CCN(C(=O)OC(C)(C)C)CC4)cc3)CC2)cc1 [5-96, tert-butyl 4-(4-(1-(4-methoxybenzyl)piperidin-4-yloxy)benzoyl)piperazine-1-carboxylate]"
12,1000 to 10000,"COc1ccc(CN2CCC(Oc3ccc(C(=O)NCCCNC(=O)OC(C)(C)C)cc3Cl)CC2)cc1 [5-97, tert-butyl 3-(3-chloro-4-(1-(4-methoxybenzyl)piperidin-4-yloxy)benzamido)propylcarbamate]"
13,1000 to 10000,COc1cc(C(=O)NCCCN2CCOCC2)ccc1OC1CCN(Cc2ccc(Cl)cc2)CC1 [5-98]
14,1000 to 10000,"CC(C)(C)OC(=O)N1CCN(C(=O)c2ccc(OC3CCN(Cc4ccccc4)CC3)cc2)CC1 [5-99, tert-butyl 4-(4-(1-benzylpiperidin-4-yloxy)benzoyl)piperazine-1-carboxylate]"
15,1000 to 10000,"O=C(NCCCN1CCOCC1)c1ccc(OC2CCN(Cc3ccc(Cl)cc3)CC2)cc1 [5-100, 4-(1-(4-chlorobenzyl)piperidin-4-yloxy)-N-(3-morpholinopropyl)benzamide]"
16,10000 to 20000,"COc1ccc(CN2CCC(Oc3ccc(C(=O)NCCCN4CCOCC4)cc3Cl)CC2)cc1 [5-101, 3-chloro-4-(1-(4-methoxybenzyl)piperidin-4-yloxy)-N-(3-morpholinopropyl)benzamide]"
17,10000 to 20000,"CC(C)(C)OC(=O)NCCCNC(=O)c1ccc(OC2CCN(Cc3ccccc3)CC2)c(Cl)c1 [5-102, tert-butyl 3-(4-(1-benzylpiperidin-4-yloxy)-3-chlorobenzamido)propylcarbamate]"
18,20000 to 50000,"O=C(c1ccc(OC2CCN(Cc3ccccc3)CC2)cc1)N1CCN(c2ccccc2)CC1 [5-103, (4-(1-benzylpiperidin-4-yloxy)phenyl)(4-phenylpiperazin-1-yl)methanone]"
